Results as given in US8476064B2, “Inhibition assay method and device for detection of antibiotics” (Charm Sciences, Inc., priority 2006, dated 2013).
One block for each compound: values may come before it.

How the values were obtained:
B.st. spores [1] = assay: Antibiotic detection test in spiked milk, Trizma/succinate culture of Example 7 (Table 5); assay type: cell-based, Bacillus (Geobacillus) Stearothermophilus; conditions: for % Pos (16 hr Result) / 16 hr Result: 16 hours later; for % Pos (Result) / Result: immediately after test completion
Experimental: A Trizma/Succinate solution was prepared by adding 2.5 grams Trizma Base and 6 grams Succinate to 100 mL of reverse osmosis/deionized water (RO/DI Water) in a 125 mL flask. 40 milligrams of BCP (see example 1 for BCP preparation) was then added to a 50 mL conical tube and 25 mL of the Trizma/Succinate solution was added to the 40 milligrams BCP and mixed.
The media was prepared by dissolving 5 grams glucose and 1 gram Mueller Hinton Broth in 100 mL RO/DI Water. 1.2 mL of a 0.01 mg/mL solution of trimethoprim in RO/DI water was added to the media. 20 mL of the BCP/Trizma/Succinate preparation was added to the media and the media was sterile filtered through a 0.45 micron filter and cooled to 4 degrees C.
0.3 grams Difco Bacto-Agar (Item #0140-01), 0.225 NaCl and 17 mL of RO/DI water was combined and mixed and heated the mixture to 95° C. The mixture was removed from the heat and allowed it to cool to 75° C. and then 6 mL media (with BCP/Tris) was added and mixed for 5 minutes. The mixture was cooled to 57° C. and 2 mL spore (concentration of 1 billion cfu/mL) was added and mixed for 5 minutes. 0.200 mL was dispensed into the bottom of each vial.
In test operation 200 microliters of various milk samples, spiked with known concentrations of antibiotics, were pipetted into vials and incubated for the prescribed time (in this test 2 hours 30 minutes) and prescribed temperature (64 degrees C.+/−2 degrees C.). Results were recorded immediately after test completion and 16 hours later. Incubation was in various Charm Inctronic I incubators. Concentrations listed are in parts per billion (ppb). 4 samples were run at each concentration except 16 negative samples were run and 2 samples each for 3 ppb pen G and amoxicillin. Abbreviations are pencillin G (PenG); sulfamethazine (SMZ); sulfadimethoxine (SDM); tylosin (TY); gentamicin (G); oxytetracycline (OT); pirlimycin (Pirl); amoxicillin (Amox); ampicillin (Amp); cloxacillin (Clox); ceftiofur sodium (Ceft); cephaprin (Ceph); tilmicosin (Til); sulfadoxine (SDN); neomycin (Neo).

B.st. spores [2] = assay: Single service kidney swab microbial growth inhibition test, culture of Example 1, with or without beta-lactam receptor; assay type: cell-based, Bacillus (Geobacillus) Stearothermophilus; conditions: for test result With receptor: with 1 U receptor
Experimental: A Bromocresol purple (BCP)/Tris Solution was prepared by combining 25 mL of a Trizma Base solution (TBS), the solution including 2.5 grams Trizma Base in 100 mL of reverse osmosis/deionized water (RO/DI Water), with 100 milligrams of BCP and mixing well. The media was prepared by dissolving 5 grams glucose and 1 gram Mueller Hinton Broth (Mueller Hinton broth includes, in purified filtered water, 2 grams per liter (g/L) beef extract, 17.5 g/L casein hydrolysate acid and 1.5 g/L starch, pH 7.3 at 25 degrees C) into 100 mL RO/DI Water. Then a 0.01 mg/mL solution of trimethoprim in RO/DI Water was prepared and 1.2 mL was added to the media. Next 20 mL of BCP/Tris (sterile filtered through 0.45 micron filter) was added to the media.
Agar was prepared by combining 0.3 grams Difco Bacto-Agar (Item #0140-01), 0.225 NaCl and 17.485 RO/DI Water. The mixture was heated to 95° C. and then removed from the heat and allowed to cool to 75° C. Next 6 mL of media (prepared as described above with BCP/Tris) was added to the agar and mixed for 5 minutes. The mixture was cooled to 57° C. and 1 mL spore solution (concentration of 1 billion cfu/mL) was added and mixed together for 5 minutes. 0.200 mL was dispensed into the bottom of a vial 4.
The dispensed vial 4 was prepared as described in example 1. An extractant was prepared by adding 4.8 grams of 47.2% Trizma Base and 52.5% Potassium Phosphate Monobasic to 1000 mL RO/DI Water (pH should be 7.5+/−0.10). The extractant was sealed within the niblet 5 and the niblet was added to the vial 4. The vial 4 was heat sealed with foil.
The single service kidney swab procedure was run by first making a 3 inch incision into kidney. The swab 1 was then withdrawn from the test unit, the test unit in the form of a POCKETSWAB, by gently pulling and twisting the handle 2 out of the test unit body 7. The swab 1 was then inserted into the incision of the kidney and allowed to sit for 15 minutes to allow full absorption of liquid into the swab 1. The swab 1 was reinserted by gently pushing down and twisting to engage the threads 6 and screwing the handle down slowly about halfway. The swab tip 3 punctured the seals 12, 13 & 14 immersing the swab tip 3 into the extractant within the niblet 5 where it sat for 2 minutes. The swab 1 was then screwed down all the way. After shaking and tapping the vial 4 to get residual liquid into the bottom of the vial 4 and in contact with the culture 15, we placed the vial 4 into a heat block set at 67° C. and incubated for 2.5 hours (if urine is tested instead of kidney, incubate for 4 hours).
Culture is prepared as in Example 1. Prior to dispensing 200 microliters into the vial 4, antibiotic binder is prepared, in this example an antibiotic binder from the cell wall of B.st., also known as receptor. Varying amounts of inhibitory receptor units are mixed into the culture. Receptor is defined as protein removed from cellular membrane of B.st. A receptor unit (1 U) is the amount of receptor that will, in the test, reverse the culture growth inhibition of 12.5 ppb of penicillin G.
Results in Table 1 are from tests using the culture described in Example 1 and with the addition of receptor added into rinse buffer (rinse buffer composition is 4.8 grams of 47.2% Trizma Base and 52.5% Potassium Phosphate Monobasic to 1000 mL RO/DI Water) at 0, 0.3 units (U), 1.0 U, 2.0 U, 5.0 Upper test. Sample contained the following amounts of penicillin G: 0, 5 parts per billion (ppb), 10 ppb, 12.5 ppb, 25 ppb and 50 ppb. As shown, 1.0 U was able to reverse the result of a 12.5 ppb penicillin G sample. Results are either positive (+) or negative (−).
Results are either positive (+), negative (−) or borderline between positive and negative (+/−). Abbreviations are penicillin G (PenG); sulfamethazine (SMZ); sulfadimethoxine (SDM); tylosin (TY); gentamicin (G); oxytetracycline (OT). […]

[3] = drug concentration 250 (unit not given)
[4] = drug concentration 500 (unit not given)
[5] = drug concentration 750 (unit not given)

Structure (SMILES): CN(C)[C@@H]1C(O)=C(C(N)=O)C(=O)[C@@]2(O)C(O)=C3C(=O)c4c(O)cccc4[C@@](C)(O)[C@H]3[C@H](O)[C@@H]12 [OT, oxytetracycline]
% Pos (16 hr Result) (B.st. spores [1]; milk spiked at 200 ppb): 0%
% Pos (Result) (B.st. spores [1]; milk spiked at 200 ppb): 0%
% Pos (16 hr Result) (B.st. spores [1]; milk spiked at 300 ppb): 100%
% Pos (Result) (B.st. spores [1]; milk spiked at 300 ppb): 100%
test result w/out receptor (B.st. spores [2]; [3]): +
test result With receptor (B.st. spores [2]; [3]): +
test result w/out receptor (B.st. spores [2]; [4]): +
test result With receptor (B.st. spores [2]; [4]): +
test result w/out receptor (B.st. spores [2]; [5]): +
test result With receptor (B.st. spores [2]; [5]): +

test result (B.st. spores [2]; 12.5 ppb penicillin G, Control - no receptor): +
test result (B.st. spores [2]; 12.5 ppb penicillin G, Receptor added to buffer): −
test result (B.st. spores [2]; 12.5 ppb penicillin G, Receptor added to culture surface): −
test result (B.st. spores [2]; 12.5 ppb penicillin G, Receptor mixed in culture): −
test result (B.st. spores [2]; 50 ppb penicillin G, Control - no receptor): +
test result (B.st. spores [2]; 50 ppb penicillin G, Receptor added dried on swab): +
test result (B.st. spores [2]; 50 ppb penicillin G, Receptor added to buffer): +
test result (B.st. spores [2]; 50 ppb penicillin G, Receptor added to culture surface): +
test sensitivity to penicillin G (B.st. spores [2]; beta-lactam receptor 0.3 units to 5.0 units added to the top of the culture): reduced by varying amounts
test result w/out receptor (B.st. spores [2]; drug 12.5 ppb): +
test result With receptor (B.st. spores [2]; drug 12.5 ppb): −
test result w/out receptor (B.st. spores [2]; drug 25 ppb): +
test result With receptor (B.st. spores [2]; drug 25 ppb): +
test result (B.st. spores [2]; penicillin G 5 ppb in sample, receptor 0 U per test in rinse buffer): +
test result (B.st. spores [2]; penicillin G 5 ppb in sample, receptor 0.3 U per test in rinse buffer): −
test result (B.st. spores [2]; penicillin G 5 ppb in sample, receptor 1.0 U per test in rinse buffer): −
test result (B.st. spores [2]; penicillin G 5 ppb in sample, receptor 2.0 U per test in rinse buffer): −
test result (B.st. spores [2]; penicillin G 5 ppb in sample, receptor 5.0 U per test in rinse buffer): −
test result (B.st. spores [2]; penicillin G 10 ppb in sample, receptor 0 U per test in rinse buffer): +
test result (B.st. spores [2]; penicillin G 10 ppb in sample, receptor 0.3 U per test in rinse buffer): −
test result (B.st. spores [2]; penicillin G 10 ppb in sample, receptor 1.0 U per test in rinse buffer): −
test result (B.st. spores [2]; penicillin G 10 ppb in sample, receptor 2.0 U per test in rinse buffer): −
test result (B.st. spores [2]; penicillin G 10 ppb in sample, receptor 5.0 U per test in rinse buffer): −
test result (B.st. spores [2]; penicillin G 12.5 ppb in sample, receptor 0 U per test in rinse buffer): +
test result (B.st. spores [2]; penicillin G 12.5 ppb in sample, receptor 0.3 U per test in rinse buffer): +
test result (B.st. spores [2]; penicillin G 12.5 ppb in sample, receptor 1.0 U per test in rinse buffer): −
test result (B.st. spores [2]; penicillin G 12.5 ppb in sample, receptor 2.0 U per test in rinse buffer): −
test result (B.st. spores [2]; penicillin G 12.5 ppb in sample, receptor 5.0 U per test in rinse buffer): −
test result (B.st. spores [2]; penicillin G 25 ppb in sample, receptor 0 U per test in rinse buffer): +
test result (B.st. spores [2]; penicillin G 25 ppb in sample, receptor 0.3 U per test in rinse buffer): +
test result (B.st. spores [2]; penicillin G 25 ppb in sample, receptor 1.0 U per test in rinse buffer): +
test result (B.st. spores [2]; penicillin G 25 ppb in sample, receptor 2.0 U per test in rinse buffer): +
test result (B.st. spores [2]; penicillin G 25 ppb in sample, receptor 5.0 U per test in rinse buffer): +
test result (B.st. spores [2]; penicillin G 50 ppb in sample, receptor 0 U per test in rinse buffer): +
test result (B.st. spores [2]; penicillin G 50 ppb in sample, receptor 0.3 U per test in rinse buffer): +
test result (B.st. spores [2]; penicillin G 50 ppb in sample, receptor 1.0 U per test in rinse buffer): +
test result (B.st. spores [2]; penicillin G 50 ppb in sample, receptor 2.0 U per test in rinse buffer): +
test result (B.st. spores [2]; penicillin G 50 ppb in sample, receptor 5.0 U per test in rinse buffer): +
Structure (SMILES): CC1(C)S[C@@H]2[C@H](NC(=O)Cc3ccccc3)C(=O)N2[C@H]1C(=O)O [PenG, penicillin G]
16 hr Result (B.st. spores [1]; milk spiked at 3 ppb): Pos
% Pos (16 hr Result) (B.st. spores [1]; milk spiked at 3 ppb): 100%
% Pos (Result) (B.st. spores [1]; milk spiked at 3 ppb): 100%
Result (B.st. spores [1]; milk spiked at 3 ppb): Pos
16 hr Result (B.st. spores [1]; milk spiked at 4 ppb): Pos
% Pos (16 hr Result) (B.st. spores [1]; milk spiked at 4 ppb): 100%
% Pos (Result) (B.st. spores [1]; milk spiked at 4 ppb): 100%
Result (B.st. spores [1]; milk spiked at 4 ppb): Pos

Structure (SMILES): COc1cc(NS(=O)(=O)c2ccc(N)cc2)nc(OC)n1 [SDM, sulfadimethoxine]
16 hr Result (B.st. spores [1]; milk spiked at 25 ppb): Pos
% Pos (16 hr Result) (B.st. spores [1]; milk spiked at 25 ppb): 100%
% Pos (Result) (B.st. spores [1]; milk spiked at 25 ppb): 100%
Result (B.st. spores [1]; milk spiked at 25 ppb): Pos
16 hr Result (B.st. spores [1]; milk spiked at 50 ppb): Pos
% Pos (16 hr Result) (B.st. spores [1]; milk spiked at 50 ppb): 100%
% Pos (Result) (B.st. spores [1]; milk spiked at 50 ppb): 100%
Result (B.st. spores [1]; milk spiked at 50 ppb): Pos
test result w/out receptor (B.st. spores [2]; drug 50 ppb): +/−
test result With receptor (B.st. spores [2]; drug 50 ppb): +/−
test result w/out receptor (B.st. spores [2]; drug 100 ppb): +/−
test result With receptor (B.st. spores [2]; drug 100 ppb): +/−
test result w/out receptor (B.st. spores [2]; drug 200 ppb): +
test result With receptor (B.st. spores [2]; drug 200 ppb): +

Structure (SMILES): Cc1cc(C)nc(NS(=O)(=O)c2ccc(N)cc2)n1 [SMZ, sulfamethazine]
16 hr Result (B.st. spores [1]; milk spiked at 100 ppb): Pos
% Pos (16 hr Result) (B.st. spores [1]; milk spiked at 100 ppb): 100%
% Pos (Result) (B.st. spores [1]; milk spiked at 100 ppb): 100%
Result (B.st. spores [1]; milk spiked at 100 ppb): Pos
16 hr Result (B.st. spores [1]; milk spiked at 200 ppb): Pos
% Pos (16 hr Result) (B.st. spores [1]; milk spiked at 200 ppb): 100%
% Pos (Result) (B.st. spores [1]; milk spiked at 200 ppb): 100%
Result (B.st. spores [1]; milk spiked at 200 ppb): Pos
test result w/out receptor (B.st. spores [2]; drug 50 ppb): −
test result With receptor (B.st. spores [2]; drug 50 ppb): −
test result w/out receptor (B.st. spores [2]; drug 100 ppb): +/−
test result With receptor (B.st. spores [2]; drug 100 ppb): +/−
test result w/out receptor (B.st. spores [2]; drug 200 ppb): +/−
test result With receptor (B.st. spores [2]; drug 200 ppb): +/−
